Results published in PubChem BioAssay (NCI).
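Briefly, cells in 96-well plates were exposed to five compound concentrations for 48 h, and endpoints were estimated by linear interpolation. At the TGI there is no net growth.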

Assays:
Test in all cases: DTP human tumour cell line panel, 48 h
SW-620 colon = tested on: SW-620 colon
SK-MEL-28 melanoma = tested on: SK-MEL-28 melanoma
K-562 leukemia = tested on: K-562 leukemia
ACHN renal = tested on: ACHN renal
NCI-H226 lung = tested on: NCI-H226 lung
MOLT-4 leukemia = tested on: MOLT-4 leukemia
SF-295 CNS = tested on: SF-295 CNS

Measured: TGI

CN(C(=O)c1ccccc1)c1ccc2c(c1)C(=O)c1ccccc1C2=O
> 100 µM: all assays above
